Several values for one entry are separate records, joined by “and”; a condition that tells them apart may be missing. Equal values may be shown once. Read-outs that look alike come from different tables or passages of the source.
Assays:
human β1-adrenoceptor [1] = biological target: T1, human β1-adrenoceptor (Homo sapiens, UniProt P08588); experiment: Association and dissociation kinetics of 10, 30 and 100 nM BODIPY-TMR-CGP in CHO-β1 cells (confocal perfusion system, single living cells); type: binding; settings: for pKD: from kon and koff(slow); for koff(fast): nonspecific component constrained to average CHO-CS dissociation rate
T1 construct: expressed in transfected cells
T1 sequence (P08588 whole entry, the tested form may be a part): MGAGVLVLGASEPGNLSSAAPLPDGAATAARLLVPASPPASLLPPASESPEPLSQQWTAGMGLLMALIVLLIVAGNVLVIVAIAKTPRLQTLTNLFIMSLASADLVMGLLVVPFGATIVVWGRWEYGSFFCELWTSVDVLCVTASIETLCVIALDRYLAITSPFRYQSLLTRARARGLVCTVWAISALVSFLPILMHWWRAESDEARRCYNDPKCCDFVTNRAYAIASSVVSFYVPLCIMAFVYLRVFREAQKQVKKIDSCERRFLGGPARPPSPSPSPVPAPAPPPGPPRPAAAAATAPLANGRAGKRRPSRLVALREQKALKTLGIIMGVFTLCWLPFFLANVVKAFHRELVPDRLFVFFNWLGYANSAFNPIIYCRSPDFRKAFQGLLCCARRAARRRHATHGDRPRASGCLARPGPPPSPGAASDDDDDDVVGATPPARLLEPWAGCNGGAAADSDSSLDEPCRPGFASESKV
Procedure: (§1) Live cell fluorescence imaging was performed on the Zeiss LSM510 laser scanning confocal microscope using a Zeiss Plan-Neofluar ×40 1.3 NA oil-immersion objective in conjunction with a temperature-controlled (37°C) perfusion system to allow the visualization and quantification of BODIPY-TMR-CGP dissociation kinetics under infinite dilution (ID) conditions in single living cells ([25]). Kinetic experiments were performed as described by May et al. ([25]). In brief, cells were grown to near confluence on 32 mm glass coverslips in 6-well plates 1 d prior to experimentation. On the day of experimentation, the coverslip was placed into a tightly closed imaging chamber on a heated (37°C) microscope stage, where it was connected to tubes to facilitate the flow of imaging buffer through the imaging chamber in the absence and presence of BODIPY-TMR-CGP and/or unlabeled ligands at a constant flow rate of ≥4 ml/min.
(§2) For association and dissociation kinetic experiments of 10–100 nM BODIPY-TMR-CGP in CHO-β1 and CHO-CS cells, the cells were exposed to imaging buffer only (30 s baseline fluorescence recording), then BODIPY-TMR-CGP (4.5 min association), and followed again by imaging buffer only (4.5 min dissociation). BODIPY-TMR-CGP was excited using a 543 nm helium-neon laser with emission collected through a 565 nm long-pass filter every 3 s throughout each experiment (512 × 512 pixels, averaging at 2 frames). The pinhole diameter (1 airy unit), laser power (2%), offset, and gain remained constant between the 3 BODIPY-TMR-CGP concentrations and the 2 cell lines used. Membrane-associated BODIPY-TMR-CGP fluorescence was measured by drawing regions of interest (ROIs) around the membranes of 10 single cells of each imaged coverslip, and changes in the average pixel intensity values for each ROI over time were analyzed to obtain association and dissociation rates for each experiment.
(§3) GraphPad Prism 5.0 (GraphPad Software, San Diego, CA, USA) was used to fit all data presented in this study. Association kinetic data were fitted using the following monoexponential association equation: [drawing 1] where Y0 is the level of BODIPY-TMR-CGP binding at time t = 0 (i.e., baseline fluorescence), Plateau is the level of BODIPY-TMR-CGP binding at infinite time, and konobs is the rate of observed association.
The koff is the dissociation rate of BODIPY-TMR-CGP. Where a level of nonspecific binding >10% of total binding was observed, the dissociation kinetic data were fitted to a 2-phase exponential decay function [drawing 5] where Plateau and t are as defined above, and Spanfast and Spanslow represent the proportion of Y0-Plateau accounted for by the fast (koff(fast)) and slow (koff(slow)) dissociation rate, respectively. Within this analysis, koff(fast) and Plateau was constrained to the average rate of dissociation and the average Plateau (in %) reached by BODIPY-TMR-CGP in control CHO-CS cells (i.e., cell not expressing the receptor of interest to determine the nonspecific BODIPY-TMR-CGP binding component).

CHO-CS cells = experiment: Association and dissociation of BODIPY-TMR-CGP in control CHO-CS cells (nonspecific binding); parameters: species or system Chinese hamster; settings: for koff(fast) / konobs: CHO-CS cells
Text: Chinese hamster ovary (CHO)-K1 cells were used for all transient transfections. CHO-K1 cells stably expressing the secreted placental alkaline phosphatase reporter gene under the transcriptional control of a 6-cAMP response element promoter (CHO-CS cells) were used as a control, as appropriate. CHO-CS cell lines either expressing human wild-type β1-adrenoceptors (CHO-β1 cells; 1147 fmol/mg protein) ([6]) or human β1-adrenoceptors containing 11 amino acid mutations (G177V, L178I, V179I, C180L, T181M, A184I, I185V, A187G, V189T, L195Q, and W199Y that convert TM4 to the equivalent residues in the β2-adrenoceptor; CHO-β1TM4 cells) ([11]) were used. CHO-K1, CHO-CS, CHO-β1, and CHO-β1TM4 cells were grown at 37°C in CHO growth medium [DMEM/Ham's nutrient mixture F12 containing 10% (v/v) fetal calf serum and 2 mM L-glutamine] in a humidified 5% CO2/95% air atmosphere.
as §1, §2, §3
The koff is the dissociation rate of BODIPY-TMR-CGP. […]

human β1-adrenoceptor [2] = biological target: T1, human β1-adrenoceptor; experiment: 3 nM BODIPY-TMR-CGP kinetics and influence of unlabeled ligands on its dissociation rate in CHO-β1 cells under infinite dilution; type: binding
[3] = biological target: T2, human β1-adrenoceptors containing 11 amino acid mutations that convert TM4 to the β2-adrenoceptor residues (CHO-β1TM4 cells) (Homo sapiens, UniProt P08588, A184I/A187G/C180L/G177V/I185V/L178I/L195Q/T181M/V179I/V189T/W199Y); experiment: 3 nM BODIPY-TMR-CGP dissociation in absence and presence of unlabeled ligands in CHO-β1TM4 cells; type: binding; settings: infinite dilution, absence of unlabeled ligands
T2 construct: expressed in transfected cells
T2 sequence (P08588 whole entry G177V/L178I/V179I/C180L/T181M/A184I/I185V/A187G/V189T/L195Q/W199Y): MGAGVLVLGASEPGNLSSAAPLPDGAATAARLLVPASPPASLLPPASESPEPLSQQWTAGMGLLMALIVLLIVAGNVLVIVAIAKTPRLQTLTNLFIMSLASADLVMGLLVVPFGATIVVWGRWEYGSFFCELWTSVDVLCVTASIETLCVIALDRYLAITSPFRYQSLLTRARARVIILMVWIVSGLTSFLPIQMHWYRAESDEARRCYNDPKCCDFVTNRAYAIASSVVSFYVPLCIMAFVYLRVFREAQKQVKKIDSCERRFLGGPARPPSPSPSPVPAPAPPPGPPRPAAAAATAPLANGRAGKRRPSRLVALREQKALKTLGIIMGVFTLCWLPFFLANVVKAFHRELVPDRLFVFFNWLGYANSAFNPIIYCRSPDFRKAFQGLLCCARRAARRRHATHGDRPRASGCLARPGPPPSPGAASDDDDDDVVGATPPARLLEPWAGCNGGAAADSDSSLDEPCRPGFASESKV
Procedure: Chinese hamster ovary (CHO)-K1 cells were used for all transient transfections. CHO-K1 cells stably expressing the secreted placental alkaline phosphatase reporter gene under the transcriptional control of a 6-cAMP response element promoter (CHO-CS cells) were used as a control, as appropriate. […] In BiFC experiments, membrane-associated BODIPY-TMR-CGP fluorescence was measured by drawing ROIs around membranes of cells that were identified to express BiFC-constrained homodimers by examination of the YFP fluorescence. […] The koff is the dissociation rate of BODIPY-TMR-CGP. […] Within this analysis, koff(fast) and Plateau was constrained to the average rate of dissociation and the average Plateau (in %) reached by BODIPY-TMR-CGP in control CHO-CS cells (i.e., cell not expressing the receptor of interest to determine the nonspecific BODIPY-TMR-CGP binding component).

[4] = biological target: T3, β1YFPN/β1YFPC BiFC-constrained β1-adrenoceptor homodimers (Homo sapiens, UniProt P08588); experiment: 3 nM BODIPY-TMR-CGP dissociation at BiFC-constrained wild-type β1-adrenoceptor homodimers in CHO-K1 cells; type: binding; settings: infinite dilution, absence of unlabeled ligands
T3 construct: to the C-terminal end of the full-length wild-type human β1-adrenoceptor; expressed in transfected cells; host or cells: CHO-K1 cells, transient co-transfection (pcDNA3.1)
T3 sequence (P08588 whole entry): as the sequence (P08588 whole entry, the tested form may be a part) above
T3 sequence (P08588 whole entry): as the sequence (P08588 whole entry, the tested form may be a part) above
Text: (§4) The SNAP-β1 construct was generated by fusing the SNAP-tag (New England Biolabs, Ipswich, MA, USA) to the N-terminal end of the wild-type human β1-adrenoceptor. The […] mutation ([7]) was introduced into the β1-YFPC and the SNAP-β1 sequence using the QuikChange site-directed mutagenesis kit (Agilent Technologies, Cheshire, United Kingdom). All sequences were confirmed by DNA sequencing. All receptor constructs were subcloned into pcDNA3.1 vectors. In bimolecular fluorescence complementation (BiFC) experiments, CHO-K1 cells were seeded onto coverslips on day 1 and transiently transfected with YFPN- and YFPC-tagged β1-adrenoceptor recombinant DNA (750 ng total) using Lipofectamine 2000 and Opti-MEM medium according to the manufacturer's instructions on day 2. […] In BiFC experiments, membrane-associated BODIPY-TMR-CGP fluorescence was measured by drawing ROIs around membranes of cells that were identified to express BiFC-constrained homodimers by examination of the YFP fluorescence. […] The koff is the dissociation rate of BODIPY-TMR-CGP. […] Within this analysis, koff(fast) and Plateau was constrained to the average rate of dissociation and the average Plateau (in %) reached by BODIPY-TMR-CGP in control CHO-CS cells (i.e., cell not expressing the receptor of interest to determine the nonspecific BODIPY-TMR-CGP binding component).

[5] = biological target: T4, β1YFPN/β1D138AYFPC BiFC-constrained β1-adrenoceptor homodimers (Homo sapiens, UniProt P08588); experiment: 3 nM BODIPY-TMR-CGP dissociation at BiFC-constrained wild-type/nonligand-binding β1-adrenoceptor homodimers in CHO-K1 cells; settings: infinite dilution, absence of unlabeled ligands
T4 construct: to the C-terminal end of the full-length wild-type human β1-adrenoceptor; expressed in transfected cells; host or cells: CHO-K1 cells, transient co-transfection (pcDNA3.1)
T4 sequence (P08588 whole entry): as the sequence (P08588 whole entry, the tested form may be a part) above
T4 sequence (P08588 whole entry D138A partner): as the sequence (P08588 whole entry, the tested form may be a part) above, with D138A counted along it
Text: as §4

[6] = biological target: T5, SNAP-β1D138A β1-adrenoceptor (Homo sapiens, UniProt P08588, D138A); experiment: Confocal imaging of 3 nM BODIPY-TMR-CGP binding to SNAP-tagged D138A β1-adrenoceptor in CHO-K1 cells; settings: CHO-K1 cells transiently transfected with SNAP-β1D138A, 10 min
T5 construct: expressed in transfected cells; host or cells: CHO-K1 cells, transient transfection (pcDNA3.1)
T5 sequence (P08588 whole entry D138A): as the sequence (P08588 whole entry, the tested form may be a part) above, with D138A counted along it
Text: The β1-yellow fluorescent protein (YFP)N and β1-YFPC receptor constructs were generated by fusing either the N-terminal fragment of YFP (YFPN; amino acids 1–155) or the C-terminal fragment of YFP (YFPC; amino acids 156–239) to the C-terminal end of the full-length wild-type human β1-adrenoceptor. The SNAP-β1 construct was generated by fusing the SNAP-tag (New England Biolabs, Ipswich, MA, USA) to the N-terminal end of the wild-type human β1-adrenoceptor. The D138A mutation ([7]) was introduced into the β1-YFPC and the SNAP-β1 sequence using the QuikChange site-directed mutagenesis kit (Agilent Technologies, Cheshire, United Kingdom). All sequences were confirmed by DNA sequencing. All receptor constructs were subcloned into pcDNA3.1 vectors.
Confocal microscopy was performed using a Zeiss LSM710 laser scanning microscope with a ×40 1.3 NA oil immersion lens. CHO-K1 cells were grown to 70% confluence in 8-well Labtek borosilicate chambered-cover glasses (Nalgene Nunc International, Fisher Scientific) and transiently transfected with SNAP-β1 or SNAP-β1D138A recombinant DNA using Lipofectamine 2000 and Opti-MEM medium according to the manufacturer’s instructions. […]

human β1-adrenoceptor [7] = biological target: T1, human β1-adrenoceptor; settings: cited from earlier work
[8] = 3 nM BODIPY-TMR-CGP, global fit of association and dissociation traces
[9] = 3 nM BODIPY-TMR-CGP, based on affinity from functional assays

bordifluoropyrromethane-tetramethylrhodamine-(±)CGP 12177 [BODIPY-TMR-CGP]
kon (human β1-adrenoceptor [1]; 10 nM BODIPY-TMR-CGP): 5.29 ± 0.79 ×10^7 M^−1⋅min^−1 | konobs (human β1-adrenoceptor [1]; 10 nM BODIPY-TMR-CGP): 0.63 ± 0.08 min⁻¹ | pKD (human β1-adrenoceptor [1]; 10 nM BODIPY-TMR-CGP): 8.71 ± 0.05 | koff(slow) (human β1-adrenoceptor [1]; 10 nM BODIPY-TMR-CGP, monoexponential dissociation): 0.09 ± 0.01 min⁻¹ | kon (human β1-adrenoceptor [1]; 30 nM BODIPY-TMR-CGP): 5.17 ± 0.28 ×10^7 M^−1⋅min^−1 | konobs (human β1-adrenoceptor [1]; 30 nM BODIPY-TMR-CGP): 1.64 ± 0.08 min⁻¹ | koff(slow) (human β1-adrenoceptor [1]; 30 nM BODIPY-TMR-CGP, 2-phase decay): 0.09 ± 0.01 min⁻¹ | pKD (human β1-adrenoceptor [1]; 30 nM BODIPY-TMR-CGP): 8.77 ± 0.08 | koff(fast) (human β1-adrenoceptor [1]; 30 nM BODIPY-TMR-CGP): 0.0412 s⁻¹ | kon (human β1-adrenoceptor [1]; 100 nM BODIPY-TMR-CGP): 2.94 ± 0.12^*^,^# ×10^7 M^−1⋅min^−1 | konobs (human β1-adrenoceptor [1]; 100 nM BODIPY-TMR-CGP): 3.08 ± 0.11 min^−1 and 3.08 ± 0.11^*^,^# min^−1 | koff(slow) (human β1-adrenoceptor [1]; 100 nM BODIPY-TMR-CGP, 2-phase decay): 0.14 ± 0.02^*^,^# min^−1 | pKD (human β1-adrenoceptor [1]; 100 nM BODIPY-TMR-CGP): 8.32 ± 0.06^*^,^# | koff(fast) (human β1-adrenoceptor [1]; 100 nM BODIPY-TMR-CGP): 0.0412 s⁻¹ | koff(fast) (CHO-CS cells; 30 nM BODIPY-TMR-CGP): 0.041 ± 0.008 s⁻¹ | konobs (CHO-CS cells; 30 nM BODIPY-TMR-CGP): 1.40 ± 0.26 min⁻¹ | koff(fast) (CHO-CS cells; 100 nM BODIPY-TMR-CGP): 0.0412 ± 0.00217 s⁻¹ | konobs (CHO-CS cells; 100 nM BODIPY-TMR-CGP): 1.62 ± 0.13 min⁻¹ | average dissociation rate obtained in CHO-CS cells (CHO-CS cells; average over BODIPY-TMR-CGP concentrations, used as constraint for koff(fast)): 2.47 min⁻¹ | association rate constant (kon) (human β1-adrenoceptor [2]; [8]): 5.27 ± 0.53 × 10^7 M^−1⋅min^−1 | dissociation rate (koff) (human β1-adrenoceptor [2]; [8]): 0.0013 ± 0.00017 s⁻¹ | pKD (human β1-adrenoceptor [2]; [8]): 8.83 ± 0.06 | koff of 3 nM BODIPY-TMR-CGP (human β1-adrenoceptor [2]; infinite dilution, absence of unlabeled ligands, 1-phase dissociation): 0.0015 ± 0.00017 s⁻¹ and 0.0015 s⁻¹ | koff of 3 nM BODIPY-TMR-CGP [3]: 0.0011 ± 8.3e-05 s⁻¹ and 0.0012 ± 0.00033 s⁻¹ | koff of 3 nM BODIPY-TMR-CGP [4]: 0.00033 ± 0.00017 s⁻¹ and 0.00033 s⁻¹ | koff of 3 nM BODIPY-TMR-CGP [5]: 0.0009 ± 0.000183 s⁻¹ and 0.00083 ± 0.00017 s⁻¹ | binding of 3 nM BODIPY-TMR-CGP (membrane fluorescence) [6]: no binding | occupancy of the high-affinity β1-adrenoceptor conformation (human β1-adrenoceptor [7]; [9]): ~86% | occupancy of the secondary low-affinity β1-adrenoceptor conformation (human β1-adrenoceptor [7]; [9]): ~3% | Kd (human β1-adrenoceptor [7]; functional studies, read-out: affinity value for the high-affinity (orthosteric) β1-adrenoceptor conformation): 0.6 nM | Kd (human β1-adrenoceptor [7]; read-out: affinity value for the low-affinity β1-adrenoceptor conformation): 87 nM

Source: publication PMC4478806 (The FASEB Journal, 2015)
